In patent US8338420B1, “Treatment of Parkinson's disease and enhancement of dopamine signal using PDE 10 inhibitor” (Mitsubishi Tanabe Pharma Corporation, priority 2002, dated 2012):

Tests used:
PDE9 (PDE9A) = target: T1, PDE9 (PDE9A) (Homo sapiens, UniProt O76083); assay: PDE assay, recombinant human PDE9A; assay type: biochemical; conditions: substrate about 12 nM [3H]-cGMP and 0.1 μM cGMP
T1 construct: FLAG (pFLAG-CMV-2) (N); made in house; host or cells: COS-7 cells, 100,000 x g supernatant of the sonicate, not purified
Description: Based on the information of cDNA sequence of human PDE9A (Genbank/EMBL Accession No. AF048837) (Fisher et al., J. Biol. Chem., 1998, vol. 273, pp. 15559-15564, […]), a cDNA encoding human PDE9A was cloned by PCR method. Using this cDNA, a recombinant protein of human PDE9A was prepared as follows.
A DNA fragment comprising a cDNA encoding human PDE9A was linked to pFLAG-CMV-2 (available from Kodak), to give a vector plasmid for expression of human PDE9A, with a flag tag peptide added to the N-terminus. COS-7 cells were transfected by these vector plasmids, and the cells were cultured in Dulbecco's modified Eagle medium containing 10% bovine fetal serum for about 24 to 48 hours. After incubation, the cells were collected, and washed with Phosphate buffered saline, and re-suspended in a solution buffer (20 mM Tris-HCl, pH7.5, 2 mM magnesium acetate, 0.3 mM calcium chloride, 1 mM dithiothreitol, 1.3 mM benzamidine). The cells were homogenized by ultrasonic treatment, and subjected to centrifugation (100,000×g, 4° C., 1 hour) to collect a supernatant.
This supernatant containing the recombinant human PDE9A was used for PDE assay as a PDE9 (PDE9A) enzyme solution. […]

PDE2 = target: T2, PDE2 (Bos taurus, UniProt P14099); assay: PDE assay, PDE2 enzyme solution from bovine adrenal gland; assay type: biochemical, Japanese Black Cattle; conditions: substrate about 12 nM [3H]-cGMP and 1 μM cGMP
T2 construct: tissue Tokyo Shibaura Zoki; host or cells: bovine adrenal gland, soluble fraction, ion-exchange fractions
T2 sequence (P14099 1-921): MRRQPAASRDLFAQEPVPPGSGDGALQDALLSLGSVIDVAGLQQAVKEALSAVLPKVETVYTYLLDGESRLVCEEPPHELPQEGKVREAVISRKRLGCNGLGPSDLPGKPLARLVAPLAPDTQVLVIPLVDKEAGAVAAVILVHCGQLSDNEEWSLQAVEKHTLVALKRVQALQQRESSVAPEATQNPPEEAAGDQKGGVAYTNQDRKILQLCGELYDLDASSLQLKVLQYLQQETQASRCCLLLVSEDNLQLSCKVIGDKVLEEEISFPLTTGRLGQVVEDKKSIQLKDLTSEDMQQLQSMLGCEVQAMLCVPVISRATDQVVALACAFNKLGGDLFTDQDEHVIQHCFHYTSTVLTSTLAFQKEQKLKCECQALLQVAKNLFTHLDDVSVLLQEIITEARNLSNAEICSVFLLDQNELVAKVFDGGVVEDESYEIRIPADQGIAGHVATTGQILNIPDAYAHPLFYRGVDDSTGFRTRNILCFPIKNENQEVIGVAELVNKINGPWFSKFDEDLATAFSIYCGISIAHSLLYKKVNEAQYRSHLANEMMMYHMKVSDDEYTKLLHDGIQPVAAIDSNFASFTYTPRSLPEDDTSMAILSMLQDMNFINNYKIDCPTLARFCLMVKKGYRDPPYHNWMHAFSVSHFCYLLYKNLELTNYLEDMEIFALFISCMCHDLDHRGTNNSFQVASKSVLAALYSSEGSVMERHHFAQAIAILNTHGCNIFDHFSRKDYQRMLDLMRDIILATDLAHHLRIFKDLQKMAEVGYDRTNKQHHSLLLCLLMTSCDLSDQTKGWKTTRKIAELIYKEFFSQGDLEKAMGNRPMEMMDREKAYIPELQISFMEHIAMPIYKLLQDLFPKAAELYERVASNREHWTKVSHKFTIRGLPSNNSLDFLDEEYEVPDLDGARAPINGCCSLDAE
Description: One adrenal gland of Japanese Black Cattle, purchased from Tokyo Shibaura Zoki, co., Ltd. was washed with 100 ml of ice-cold saline (0.9% sodium chloride) twice. Subsequently, the tissues were cut into about 1 gram, and it was frozen by liquid nitrogen. To about 2 g of this tissue sample was added 10 ml of an ice-cold homogenization buffer II (25 mM Tris-HCl, pH 7.5, 4 mM magnesium chloride, 0.5 mM EGTA, 2 mM dithiothreitol, 4 mM benzamidine, 0.1 mM phenylmethylsulfonyl fluoride), and the homogenate that was homogenized by Polytron homogenizer for 3 minutes was centrifuged at 8000 rpm, at 4° C. for 20 minutes, and the obtained supernatant was further centrifuged by an ultracentrifuge at 50000 rpm, at 4° C. for 60 minutes. The resultant supernatant was stored at 4° C.
This supernatant was applied to chromatography under the FPLC system, in the same manner as in Example 1 (1) above. […]
Subsequently, the eluted fractions were used as an enzyme solution for PDE assay, and cGMP-hydrolyzing activity was measured. Or, cAMP-hydrolyzing activity was measured for respective fractions, in the presence or absence of unlabeled cGMP. […]

T1 sequence (O76083 whole entry): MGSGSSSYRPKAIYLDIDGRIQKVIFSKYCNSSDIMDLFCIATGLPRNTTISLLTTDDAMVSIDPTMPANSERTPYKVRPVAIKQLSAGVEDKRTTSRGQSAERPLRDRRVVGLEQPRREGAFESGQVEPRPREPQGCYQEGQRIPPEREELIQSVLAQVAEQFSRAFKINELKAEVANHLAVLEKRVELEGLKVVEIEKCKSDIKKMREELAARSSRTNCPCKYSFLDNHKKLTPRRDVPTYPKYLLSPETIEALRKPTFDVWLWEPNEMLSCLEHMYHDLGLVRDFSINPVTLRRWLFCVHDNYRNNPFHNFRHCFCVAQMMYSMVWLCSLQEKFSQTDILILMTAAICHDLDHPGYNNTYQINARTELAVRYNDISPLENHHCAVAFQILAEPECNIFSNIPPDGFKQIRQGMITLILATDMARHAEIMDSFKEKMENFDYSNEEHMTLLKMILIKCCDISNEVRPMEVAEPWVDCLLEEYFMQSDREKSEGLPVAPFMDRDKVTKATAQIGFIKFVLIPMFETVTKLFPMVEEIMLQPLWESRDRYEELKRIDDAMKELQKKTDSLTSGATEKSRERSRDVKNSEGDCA

COc1ccc(-c2cc(N3CCCC3)nc(/C=C/c3nc(-n4ccnc4)c4ccccc4n3)n2)cc1OC [Compound A, 2-{(E)-2-[4-(1-imidazolyl)-quinazolin-2-yl]}ethenyl-4-(3,4-dimethoxy)phenyl-6-(pyrrolidin-1-yl)pyrimidine]
IC50 (PDE9 (PDE9A)): > 1000 nM
IC50 (PDE2): > 1000 nM
